We go through 14 compounds from patent US20100249071A1, “Modulators of S1P and Methods of Making And Using” (Exelixis, Inc., priority 2009, published 2010).

Like-named read-outs stand apart in the source and are kept apart here.

Assay [1] addresses T1, hS1P1R (hEdg1) membrane protein (Homo sapiens, UniProt P21453).
T1 construct: purchased Lonza
The assay is described as follows: hS1P1R GTPγS binding assay (Assay 3a). It is filed as biochemical. Here is the method:
Assay 3a: The hS1P1R GTPγS binding assay was carried out at room temperature in 96 well non-binding surface assay plates. The reaction in each well contained 4 μg hS1P1R (hEdg1) membrane protein (Lonza), 30 μM GDP, 0.1 nM [^35S]GTPγS, 0.25% fatty acid free BSA, and serially diluted hS1P1R agonist compound in 200 μL assay buffer (25 mM Tris-HCl PH 7.9, 100 mM NaCl, 3 mM MgCl2, and 0.2 mM EGTA). After one hour of incubation, 0.9 mg of WGA (Wheat Germ Agglutinin) SPA beads in 50 μL of assay buffer was added to each well. The SPA beads were spun down after an additional one hour incubation. The radioactivity of the bound GTPγS was counted by reading the assay plate using a MicroBeta.
On the technique in general: GTPγS resists hydrolysis and so accumulates on activated G proteins.

The target in a further assay is T2, S1P1 (Homo sapiens, UniProt P21453).
T2 construct: host or cells: U2OS
The assay is described as follows: Tango β-arrestin recruitment assay in U2OS cells (Assay 2b). It is filed as cell-based. The text has this: (§1) For the Tango™ β-arrestin recruitment assay, the cytoplasmic C-terminus of S1P1 was tethered to the tTA transcriptional activator with a linker that contains a cleavage site for the N1a protease from tobacco etch virus (TEV protease). The C-terminus of the human β-arrestin2 protein was fused to TEV protease. Binding of an agonist recruits the βl -arrestin-TEV fusion protein to the receptor resulting in cleavage of the linker and released of tTA to enter the nucleus and subsequently activated a tTA-dependent luciferase reporter gene.
Assay 2b: Alternatively, U2OS cells expressing the reporter gene and S1P1 (Invitrogen) were added to the wells of a 384-well white opaque bottom assay plate (PerkinElmer) at […]. The cells were serum starved for 48 h in Freestyle medium (Invitrogen). Test compounds were tested at maximum concentrations of 1 μM for the agonist assay. Compounds were diluted in DMSO (10 concentration points, 3-fold each) and added to the assay plate at a 1% final DMSO concentration. The efficacy control was 1 μM S1P (Avanti). For each compound, there were duplicate assay plates and each assay plate had duplicate wells per concentration point. The plate was incubated overnight at 37° C. The GeneBLAzer β-lactamase assay reagent (Invitrogen) was added and the plates were incubated for an additional 2 h at room temperature. Fluorescence was measured using an EnVision plate reader (PerkinElmer, Waltham, Mass.) at an excitation wavelength of 409 nm and emission wavelengths of 460 nm and 530 nm. The emission intensity at each wavelength was background subtracted against wells containing medium only and the F460 nm/F530 nm ratio determined for each concentration of the test compounds. Percent activity was calculated as [(test compound ratio−DMSO ratio)/(positive control ratio−DMSO ratio)*100], where the positive control and DMSO ratios are from cells incubated with the efficacy control 1 μM S1P and 1% DMSO, respectively. The percent activities were plotted against compound concentration to determine EC50 using XLFit (IDBS).

Assay [2] concerns the target T3, hS1PR5 (hEdg8) membrane protein (Homo sapiens, UniProt Q9H228).
T3 construct: expressed in transfected cells; host or cells: CHO
The assay is described as follows: hS1P5R GTPγS binding assay (Assay 4). It is filed as biochemical. How it is done: The hS1PR5 GTPγS binding assay was carried out at room temperature in 96-well non-binding surface assay plates. The reaction in each well contained 5 μg hS1PR5 (hEdg8) membrane protein from CHO cells expressing hS1PR5, 30 μM GDP, 0.1 nM [^35S]GTPγS, 0.25% fatty acid free BSA, and serially-diluted Compound of the Invention in 200 μL assay buffer (25 mM Tris-HCl PH 7.9, 100 mM NaCl, 3 mM MgCl2, and 0.2 mM EGTA). After one hour of incubation, 0.9 mg of WGA (Wheat Germ Agglutinin) SPA beads in 50 μL of assay buffer was added to each well. The SPA beads were spun down after an additional one hour incubation. The radioactivity of the bound GTPγS was counted by reading the assay plate using a MicroBeta.

For another assay, the target named is T4, S1P3 (Homo sapiens, UniProt Q99500).
T4 construct: host or cells: HEK293 (transient transfection)
The assay is described as follows: S1P3 Tango β-arrestin recruitment assay in HEK293 cells (Assay 5). It counts as cell-based.
Text: as §1
Assay 2a: Frozen HEK293 cells transiently transfected with receptor cDNAs for S1P1 (Invitrogen) are thawed and suspended in 10 mL of Pro293a-CDM culture medium (Invitrogen) supplemented with 4 mM L-Glutamine (Invitrogen), 1× Pen/Strep (100 units/mL penicillin and 100 μg/mL streptomycin, Invitrogen) and 0.1% fatty acid free BSA (Sigma-Aldrich). Cells are added to the wells of a 384-well white opaque bottom assay plate (PerkinElmer) at 3,000-6,000 cells per well and the plate is incubated for approximately 4 h in a 37° C. incubator. Test compounds are tested at maximum concentrations of 10 μM for the agonist assays. Compounds are diluted in DMSO (10 concentration points, 3-fold each) and added to the assay plate at a 1% final DMSO concentration. For each compound, there are duplicate assay plates and each assay plate has duplicate wells per concentration point. The plate is incubated at 37° C. for 30 min. The efficacy control is 5 μM S1P (Avanti). Following agonist addition, the assay plates are incubated in a 37° C. incubator for 16-18 h. Luciferase assay reagent is added and luminescence measured in an EnVision plate reader (PerkinElmer). To determine agonist activity, percent activity is calculated as [(test compound−background)/(positive control−background)*100], where background is the luminescence of the DMSO alone control and the positive control is the luminescence from cells incubated with the efficacy control 5 μM S1P. The percent activities are plotted against compound concentration to determine EC50 using XLFit (IDBS).
This assay was conducted using the procedures described in Assay 2a, replacing S1P1 with S1P3.
For orientation: Recruitment of arrestin is a read-out of receptor activation apart from second messengers.

T2 sequence (P32121 whole entry): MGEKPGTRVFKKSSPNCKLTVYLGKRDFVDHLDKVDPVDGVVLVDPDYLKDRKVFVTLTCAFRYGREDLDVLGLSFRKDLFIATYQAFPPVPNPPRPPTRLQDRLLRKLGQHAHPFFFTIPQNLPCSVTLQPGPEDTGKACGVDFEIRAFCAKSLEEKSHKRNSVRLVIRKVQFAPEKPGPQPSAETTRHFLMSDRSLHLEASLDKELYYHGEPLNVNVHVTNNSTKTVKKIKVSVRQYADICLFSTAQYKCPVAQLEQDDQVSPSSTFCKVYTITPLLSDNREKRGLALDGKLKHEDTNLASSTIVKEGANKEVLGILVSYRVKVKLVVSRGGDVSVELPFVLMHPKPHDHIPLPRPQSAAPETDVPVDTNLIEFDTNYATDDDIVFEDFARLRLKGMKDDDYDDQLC
T2 sequence (P21453 whole entry): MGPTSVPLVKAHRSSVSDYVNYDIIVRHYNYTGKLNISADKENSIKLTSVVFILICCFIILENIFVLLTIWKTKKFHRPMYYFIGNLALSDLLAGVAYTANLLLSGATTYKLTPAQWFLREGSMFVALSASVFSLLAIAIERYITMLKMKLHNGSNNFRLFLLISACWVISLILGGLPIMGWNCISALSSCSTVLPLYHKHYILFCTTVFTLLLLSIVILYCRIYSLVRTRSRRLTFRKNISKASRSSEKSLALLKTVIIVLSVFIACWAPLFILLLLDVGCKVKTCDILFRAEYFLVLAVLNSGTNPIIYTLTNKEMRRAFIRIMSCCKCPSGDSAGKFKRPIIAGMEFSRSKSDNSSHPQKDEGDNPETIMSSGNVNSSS
T4 sequence (P32121 whole entry): as the sequence (P32121 whole entry) above
T4 sequence (Q99500 whole entry): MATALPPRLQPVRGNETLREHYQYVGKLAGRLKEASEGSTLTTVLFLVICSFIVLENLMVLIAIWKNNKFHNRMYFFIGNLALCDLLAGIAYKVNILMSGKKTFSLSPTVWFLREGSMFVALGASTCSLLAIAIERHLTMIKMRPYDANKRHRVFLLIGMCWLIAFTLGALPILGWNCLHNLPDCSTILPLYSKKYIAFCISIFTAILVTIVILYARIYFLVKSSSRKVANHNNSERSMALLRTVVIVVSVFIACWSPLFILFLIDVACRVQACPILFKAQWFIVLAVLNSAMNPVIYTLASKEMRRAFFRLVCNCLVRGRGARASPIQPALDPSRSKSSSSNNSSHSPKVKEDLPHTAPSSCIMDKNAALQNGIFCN
T1 sequence (P21453 whole entry): as the sequence (P21453 whole entry) above
T3 sequence (Q9H228 whole entry): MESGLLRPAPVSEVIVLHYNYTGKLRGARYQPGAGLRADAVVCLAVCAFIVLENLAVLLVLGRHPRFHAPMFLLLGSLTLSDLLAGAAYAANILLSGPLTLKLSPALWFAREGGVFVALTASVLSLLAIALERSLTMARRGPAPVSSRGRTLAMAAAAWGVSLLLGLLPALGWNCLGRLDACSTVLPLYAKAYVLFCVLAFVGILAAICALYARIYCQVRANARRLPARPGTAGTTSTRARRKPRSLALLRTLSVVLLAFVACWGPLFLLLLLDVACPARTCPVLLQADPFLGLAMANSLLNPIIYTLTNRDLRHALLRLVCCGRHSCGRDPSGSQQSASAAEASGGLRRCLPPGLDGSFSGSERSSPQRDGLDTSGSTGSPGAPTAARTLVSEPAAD

The term EC50 denotes the midpoint of the concentration-response curve. Take `CC(C)Cc1ccc(-c2nnc(-c3cc(F)c(OC[C@H](N)CO)cc3Cl)s2)cc1` [Entry 3, (2R)-2-amino-3-[(5-chloro-2-fluoro-4-{5-[4-(2-methylpropyl)phenyl]-1,3,4-thiadiazol-2-yl}phenyl)oxy]propan-1-ol]: the EC50 in assay [1] was 250 to 2800 nM; on S1P1 (read-out: Assay 2b EC50) it was 50 to 250 nM; in assay [2] it was 250 to 2800 nM; at S1P3 (read-out: Assay 5 EC50) it was more than 10000 nM.
Turning to `CC(C)N(C)c1cc(-c2nnc(-c3cc(F)c(OCC(N)CO)cc3Cl)s2)cc(Cl)n1` (stereo not shown) [Entry 5, 2-amino-3-{[5-chloro-4-(5-{2-chloro-6-[methyl(1-methylethyl)amino]pyridin-4-yl}-1,3,4-thiadiazol-2-yl)-2-fluorophenyl]oxy}propan-1-ol], the EC50 in assay [1] was 10 to 50 nM; at S1P1 (read-out: Assay 2b EC50), not above 10 nM; in assay [2] it was 250 to 2800 nM; on S1P3 (read-out: Assay 5 EC50), not above 250 nM.
Taken in the same sequence, the figures for `CC(C)Oc1ncc(-c2nnc(-c3cc(F)c(OCC(N)CO)cc3Cl)s2)cc1Cl` (stereo not shown) [Entry 6, 2-amino-3-{[5-chloro-4-(5-{5-chloro-6-[(1-methylethyl)oxy]pyridin-3-yl}-1,3,4-thiadiazol-2-yl)-2-fluorophenyl]oxy}propan-1-ol] were 10 to 50 nM, not above 10 nM, 250 to 2800 nM and not above 250 nM.
On to `CC(C)Oc1ccc(-c2nnc(-c3cc(F)c(OC[C@@H](N)CO)cc3Cl)s2)cc1Cl` [Entry 10, (2S)-2-amino-3-{[5-chloro-4-(5-{3-chloro-4-[(1-methylethyl)oxy]phenyl}-1,3,4-thiadiazol-2-yl)-2-fluorophenyl]oxy}propan-1-ol], for which the EC50 in assay [1] was not above 10 nM; at S1P1 (read-out: Assay 2b EC50), not above 10 nM; in assay [2], 10 to 50 nM; on S1P3 (read-out: Assay 5 EC50), not above 250 nM.
For the compound `CC(C)Oc1ccc(-c2nnc(-c3cc(F)c(OC[C@@H](N)CO)cc3Cl)s2)cc1Br` [Entry 11, (2S)-2-amino-3-{[4-(5-{3-bromo-4-[(1-methylethyl)oxy]phenyl}-1,3,4-thiadiazol-2-yl)-5-chloro-2-fluorophenyl]oxy}propan-1-ol], the EC50 in assay [1] is not above 10 nM; at S1P1 (read-out: Assay 2b EC50) it was not above 10 nM; in assay [2], 10 to 50 nM; at S1P3 (read-out: Assay 5 EC50), not above 250 nM.
Take `CC(C)Oc1ccc(-c2nnc(-c3cc(F)c(OC[C@@H](N)COP(=O)(O)O)cc3Cl)s2)cc1Br` [Entry 12, (2R)-2-amino-3-{[4-(5-{3-bromo-4-[(1-methylethyl)oxy]phenyl}-1,3,4-thiadiazol-2-yl)-5-chloro-2-fluorophenyl]oxy}propyl dihydrogen phosphate]: the EC50 is not above 10 nM in assay [1]; not above 10 nM at S1P1 (read-out: Assay 2b EC50); not above 10 nM in assay [2]; not above 250 nM on S1P3 (* = rEC50 measured rather than EC50, read-out: Assay 5 rEC50 (relative EC50, cells marked *)).
`CC(C)Oc1ccc(-c2nnc(-c3cc(F)c(OC[C@H](N)COP(=O)(O)O)cc3Cl)s2)cc1Cl` [Entry 13, (2S)-2-amino-3-{[5-chloro-4-(5-{3-chloro-4-[(1-methylethyl)oxy]phenyl}-1,3,4-thiadiazol-2-yl)-2-fluorophenyl]oxy}propyl dihydrogen phosphate]: the EC50 in assay [1] is not above 10 nM; on S1P1 (read-out: Assay 2b EC50), not above 10 nM; in assay [2], not above 10 nM; at S1P3 (read-out: Assay 5 EC50), not above 250 nM.
Turning to `CC(C)Oc1ccc(-c2nnc(-c3cc(F)c(OC[C@@H](N)CO)cc3Cl)s2)nc1Cl` [Entry 33, (2S)-2-amino-3-{[5-chloro-4-(5-{6-chloro-5-[(1-methylethyl)oxy]pyridin-2-yl}-1,3,4-thiadiazol-2-yl)-2-fluorophenyl]oxy}propan-1-ol], the EC50 in assay [1] was 10 to 50 nM; at S1P1 (read-out: Assay 2b EC50), not above 10 nM; at S1P3 (read-out: Assay 5 EC50) it was not above 250 nM.
On to `CC(C)Oc1ccc(-c2nnc(-c3ccc(OC[C@H](N)CO)cc3Cl)s2)cc1Cl` [Entry 34, (2R)-2-amino-3-{[3-chloro-4-(5-{3-chloro-4-[(1-methylethyl)oxy]phenyl}-1,3,4-thiadiazol-2-yl)phenyl]oxy}propan-1-ol], for which the EC50 was 10 to 50 nM in assay [1], 50 to 250 nM at S1P1 (read-out: Assay 2b EC50) and more than 10000 nM on S1P3 (read-out: Assay 5 EC50).
The corresponding values for `CC(C)N(C)c1ccc(-c2nnc(-c3cc(F)c(OCC(N)CO)cc3Cl)s2)cn1` (stereo not shown) [Entry 36, 2-amino-3-{[5-chloro-2-fluoro-4-(5-{6-[methyl(1-methylethyl)amino]pyridin-3-yl}-1,3,4-thiadiazol-2-yl)phenyl]oxy}propan-1-ol] are 250 to 2800 nM, not above 10 nM and not above 250 nM.
Taken in the same sequence, the figures for `N[C@H](CO)COc1cc(Cl)c(-c2nnc(-c3cc(Cl)cc(Cl)c3)s2)cc1F` [Entry 92, (2R)-2-amino-3-({5-chloro-4-[5-(3,5-dichlorophenyl)-1,3,4-thiadiazol-2-yl]-2-fluorophenyl}oxy)propan-1-ol] were 250 to 2800 nM, 250 to 2800 nM and more than 10000 nM.
For `Cc1cc(-c2nnc(-c3cc(F)c(OC[C@H](N)[C@H](C)OP(=O)(O)O)cc3Cl)s2)ccc1OC(C)C` [Entry 104, (1S,2S)-2-amino-3-{[5-chloro-2-fluoro-4-(5-{3-methyl-4-[(1-methylethyl)oxy]phenyl}-1,3,4-thiadiazol-2-yl)phenyl]oxy}-1-methylpropyl dihydrogen phosphate], the EC50 on S1P1 (* = rEC50 measured rather than EC50, read-out: Assay 2b rEC50 (relative EC50, cells marked *)) is not above 10 nM; in assay [2] it was not above 10 nM; at S1P3 (read-out: Assay 5 EC50), more than 250 nM.
Regarding `Cc1nc(-c2nnc(-c3cc(F)c(OC[C@H](N)[C@H](C)O)cc3Cl)s2)ccc1NC(C)C` [Entry 105, (2S,3S)-3-amino-4-(5-chloro-2-fluoro-4-{5-[6-methyl-5-(propan-2-ylamino)pyridin-2-yl]-1,3,4-thiadiazol-2-yl}phenoxy)butan-2-ol], the concentration giving a half-maximal response (EC50) at S1P1 (read-out: Assay 2b EC50) is 50 to 250 nM; in assay [2], 50 to 250 nM; at S1P3 (read-out: Assay 5 EC50), more than 250 nM.
On to `Cc1cc(NC(C)C)cc(-c2nnc(-c3cc(F)c(OC[C@H](N)[C@H](C)O)cc3Cl)s2)n1` [Entry 106, (2S,3S)-3-amino-4-(5-chloro-2-fluoro-4-{5-[6-methyl-4-(propan-2-ylamino)pyridin-2-yl]-1,3,4-thiadiazol-2-yl}phenoxy)butan-2-ol], for which the concentration for a half-maximal effect (EC50) was 50 to 250 nM on S1P1 (read-out: Assay 2b EC50), 50 to 250 nM in assay [2] and more than 250 nM on S1P3 (read-out: Assay 5 EC50).
